Assay results taken from paper PMC7808732 (Biochemical and Biophysical Research Communications, 2021).

Molecular target: RNA-binding domain (RBD) of the SARS-CoV-2 nucleocapsid (N) protein, RBD (44–180) (Severe acute respiratory syndrome coronavirus 2, UniProt P0DTC9)
Test: biochemical

Nc1ncnc2c1ncn2[C@@H]1O[C@H](COP(=O)(O)OP(=O)(O)OP(=O)(O)O)[C@@H](O)[C@H]1O [ATP]
Kd: 3.3 ± 0.4 mM
